A short description of data set [1]: PCB52 and monohydroxylated metabolite tissue levels by GC-MS/MS after 4 h nose-only inhalation. Type of data set: in vivo, Sprague–Dawley rats. As to conditions: Sprague-Dawley, rat, inhaled. As for the experimental part:
PCB52 vapor for the animal exposure was generated using a published protocol.[12] Briefly, 450 g of 3 mm diameter glass beads were added to a solution of 1.5 g of PCB52 in dichloromethane. The glass beads were then coated with PCB52 by evaporating dichloromethane in a water bath at 29 °C using a rotary evaporator (Buchi Rotavapor R-200, New Castle, DE) under reduced pressure. For the animal exposures, high-efficiency particulate air (HEPA)-filtered laboratory air was passed through the PCB52-coated glass beads at a flow rate of 12 L/min to expose animals to PCB52 vapor in a nose-only exposure apparatus (Figure 1A). The flask of PCB52-coated beads and mixing chamber were kept at 25.0 °C using a precision water bath to facilitate the volatilization of PCB52. The PCB52-laden air was passed through a mixing chamber and distributed to the nose-only inhalation apparatus at a flow rate of 4 L/min per tower (n = 3) and a sampling cartridge filled with 10 g of Amberlite XAD-2 polymeric absorbent resin (Sigma-Aldrich, St. Louis, MO) at a flow rate of 2 L/min. The specified flow rates were generated using flow meter-regulated pumps. The XAD-2 cartridge was used to capture PCB52 vapor to characterize the exposure atmosphere. A sham exposure group was exposed in parallel to HEPA-filtered clean air in an identical nose-only exposure system in an adjacent lab with no supplied PCB52.
The Institutional Animal Care and Use Committee of the University of Iowa approved all of the animal protocols. Animals were housed in a temperature- and humidity-controlled room (21 °C, 55% relative humidity) with a 12 h light/dark cycle in an Association for the Assessment and Accreditation of Laboratory Animal Care (AAALAC) accredited animal facility. Animals were provided with food (sterile Teklad 5% stock diet, Harlan, Madison, WI) and water ad libitum throughout the study. Thirty-six male and female Sprague–Dawley rats (7 weeks of age; Charles River, Wilmington, MA) were allowed to acclimate to the animal facility for 8 days after arrival. Prior to exposure, rats (227 ± 27 and 197 ± 13 g, male and female, respectively) were randomly assigned to the exposure groups (n = 6 per group) using a random number generated (Excel, version 2307). Animals were simultaneously exposed for 4 h to a low or high concentration of PCB52-laden per sex) or filtered lab air (Figure 1A). Exposure duration was limited to 4 h along with scheduled training days (30 min at 55 days of age and 2 h at 56 days of age) to acclimate animals and minimize stress. […] Animal exposure occurred for 4 h at 57 days of age. Rats are considered adolescents at this age.[38] Serum was collected immediately after the animals were removed from the nose-only apparatus by cardiac puncture under isoflurane anesthesia. Rats were perfused with saline, and organs were excised and stored at −80 °C. Body and organ weights, including brain, lungs, and thymus, were not altered by PCB52 inhalation regardless of sex or exposure (Tables S2 and S3).
PCB52 and its hydroxylated metabolites were extracted from tissues, serum, and cecum and intestinal content using a published protocol;[40],[41] see the Supporting Information. Briefly, PCB52 and its metabolites were extracted from homogenates by liquid–liquid extraction and cleaned by solid-phase extraction with acidified silica gel. PCB52 and metabolites were quantified in the multiple reaction monitoring setting (MRM) on an Agilent 7890 A GC system equipped with an Agilent 7000 Triple Quad and Agilent 7693 autosampler (Agilent Technologies, Santa Clara, CA); see the Supporting Information.
PCB52 and metabolite levels, adjusted for tissue wet weight, are reported as the mean ± standard deviation. Differences in PCB52 and metabolite levels from the GC-MS/MS analysis were analyzed with the Tobit regression model because some measurements are below the detection limit. […]

On the set-up of data set [2]: method as in PMID 36804509. As to conditions: 3 weeks after intraperitoneal administration of PCB52 100 mg/kg bw; cited from earlier work.
On the set-up of data set [3]: method as in PMID 24275706. As to conditions: cited from earlier work.
Details of data set [4]: method as in PMID 23582014. As to conditions: male rats exposed acutely to PCB11 vapors; cited from earlier work.

Read-outs that look alike come from different tables or passages of the source.

Consider `Oc1cc(Cl)c(-c2cc(Cl)ccc2Cl)cc1Cl` [4-OH-PCB52, 2,2′,5,5′-Tetrachlorobiphenyl-4-ol], for which the concentration at 4 h in data set [1] (both sexes, brain, irrespective of sex and exposure group, GC-MS/MS, read-out: level in the brain (below the detection limit)) was under 0.16 ng/g; in data set [1] (female, adipose, female, high dose, mean, read-out: PCB or metabolite detected level, Adipose), 0.2 ng/g; in data set [1] (female, cecum, female, high dose, mean, read-out: PCB or metabolite detected level, Cecum), 3 ng/g; in data set [1] (female, cecum, female, low dose, mean, read-out: PCB or metabolite detected level, Cecum), 2 ng/g; in data set [1] (female, intestinal content, female, high dose, mean, read-out: PCB or metabolite detected level, Intestinal content), 5 ng/g; in data set [1] (female, intestinal content, female, low dose, mean, read-out: PCB or metabolite detected level, Intestinal content) it was 4 ng/g. The concentration at 4 h in data set [1] (female, liver, female, high dose, mean, read-out: PCB or metabolite detected level, Liver) was 0.2 ng/g; in data set [1] (female, liver, female, low dose, mean, read-out: PCB or metabolite detected level, Liver), 0.2 ng/g; in data set [1] (female, lung, female, high dose, mean, read-out: PCB or metabolite detected level, Lung), 0.2 ng/g; in data set [1] (female, lung, female, low dose, mean, read-out: PCB or metabolite detected level, Lung) it was 0.1 ng/g; in data set [1] (female, serum, female, high dose, mean, read-out: PCB or metabolite detected level, Serum) it was 0.1 ng/g; in data set [1] (female, serum, female, low dose, mean, read-out: PCB or metabolite detected level, Serum), 0.4 ng/g. Further, the concentration at 4 h turned out to be 0.2 ng/g in data set [1] (male, adipose, male, high dose, mean, read-out: PCB or metabolite detected level, Adipose); 2 ng/g in data set [1] (male, cecum, male, high dose, mean, read-out: PCB or metabolite detected level, Cecum); 1 ng/g in data set [1] (male, cecum, male, low dose, mean, read-out: PCB or metabolite detected level, Cecum); 0.4 ng/g in data set [1] (male, intestinal content, male, high dose, mean, read-out: PCB or metabolite detected level, Intestinal content); 0.3 ng/g in data set [1] (male, liver, male, high dose, mean, read-out: PCB or metabolite detected level, Liver); 0.1 ng/g in data set [1] (male, liver, male, low dose, mean, read-out: PCB or metabolite detected level, Liver). Further, the concentration at 4 h in data set [1] (male, lung, male, high dose, mean, read-out: PCB or metabolite detected level, Lung) came to 0.2 ng/g; in data set [1] (male, lung, male, low dose, mean, read-out: PCB or metabolite detected level, Lung) it was 0.1 ng/g; in data set [1] (male, serum, male, high dose, mean, read-out: PCB or metabolite detected level, Serum), 0.4 ng/g; in data set [1] (male, serum, male, low dose, mean, read-out: PCB or metabolite detected level, Serum) it was 0.4 ng/g. Also, the “detection frequency in the rat brain” value in data set [2] is 20%.
With `Clc1cccc(-c2cccc(Cl)c2)c1` [PCB11, 3,3′-dichlorobiphenyl], the “time to radioactivity in the systemic circulation” value in data set [3] (intratracheally instilled 14C-labeled PCB11) is listed as at most 12 min. For the same molecule, the “time of highest levels of extractable PCB11 metabolites in the jejunum and ileum” value in data set [3] (postexposure) is reported as “approximately 100 min”. Besides, in data set [4], the “rank order of tissue levels” value is reported as “lung > serum > liver”.
